{"source": "patent US9918963B2", "about": "“Therapeutic agent for disease based on inhibitory effect of macrophage migration inhibitory factor” (TOYAMA CHEMICAL CO., LTD., priority 2013, dated 2018)", "key": {"MIF": {"biological_target": "T1, MIF (Homo sapiens, UniProt P14174)", "T1 construct": "(catalogue number not given); host or cells: E. coli BL21 Star (DE3)", "T1 sequence (P14174 2-115 limits assumed)": "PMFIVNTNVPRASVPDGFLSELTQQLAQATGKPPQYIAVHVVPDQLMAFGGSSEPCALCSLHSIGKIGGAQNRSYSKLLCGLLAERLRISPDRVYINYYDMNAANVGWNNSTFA", "test": "Inhibition of MIF tautomerase activity (L-dopachrome methyl ester, absorbance at 475 nm)", "assay_type": "biochemical", "details": "30 μmol/L test substance, 10 to 50 nmol/L MIF, pH 6.2, control = 100%; read-out: Inhibition Rate of Tautomerase Reaction", "method": "The inhibitory effect of test substances against tautomerase activity of MIF was evaluated by referring to a method of Healy et al. (Cancer Epidemiology Biomarkers and Prevention, 2011, vol. 20, pp. 1516-1523).\nIn this method, tautomeric reaction from L-3,4-dihydroxyphenylalanine methyl ester (L-dopachrome methyl ester, colored) to 5,6-hydroxyindole-2-carboxylic acid methyl ester (no color) is measured as a change in absorbance at 475 nm.\nAs an enzyme source, recombinant MIF manufactured by Abcam Plc. or MIF produced and purified by referring to a method of Lubetsky et al. (The Journal of Biological Chemistry, 2002, vol. 277, pp. 24976-24982) was used. A purification method for MIF is described below.\nThe pET15b vector (Merck) into which the full length gene sequence of MIF had been inserted was transfected E. coli BL21 Star (DE3) strain (Life Technologies Corporation). […] The E. coli were resuspended in buffer (pH 7.5) containing 20 mmol/L Tris (Wako Pure Chemical Industries, Ltd.), 20 mmol/L sodium chloride (Wako Pure Chemical Industries, Ltd.) and 1 mmol/L dithiothreitol (Wako Pure Chemical Industries, Ltd.), and the resultant was subjected to ultrasonic lysis and centrifugation at 15000 rpm for 10 minutes. The thus obtained supernatant was filtered using a 0.20 μm filter, and was allowed to pass through HiTrap Q HP and HiTrap SP HP columns (GE Healthcare Japan Corporation), so as to separate flow-through fractions each of 5 mL. Each of 10 μL of the separated fractions was subjected to the electrophoresis using 5 to 20% polyacrylamide gel (Wako Pure Chemical Industries, Ltd.), and all proteins were stained with Coomassie brilliant blue reagent (Bio-Rad Laboratories, Inc.). On the basis of results thus obtained, a fraction containing a large amount of MIF and containing least amount of other proteins was selected as purified MIF. The concentration of MIF protein was measured by using BCA protein assay reagent (Thermo Fisher Scientific K. K.).\nInhibitory effect of each test substance against MIF tautomerase activity was measured as follows.\nA final concentration of 10 to 50 nmol/L of MIF and a final concentration of 30 μmol/L of each test substance or 0.5% dimethyl sulfoxide (Wako Pure Chemical Industries, Ltd.) as a control were added to buffer (pH 6.2) containing 50 mmol/L Bis-Tris (Dojindo Laboratories) and 1 mmol/L EDTA (Dojindo Laboratories), and reaction was performed at room temperature for 15 minutes to give a reaction solution 1.\nOn the other hand, 1/20 volume of 12 mmol/L L-3,4-dihydroxyphenylalanine methyl ester (Sigma Aldrich) and 1/20 volume of 24 mmol/L sodium periodate (Wako Pure Chemical Industries, Ltd.) were added to buffer having the same composition as that used for obtaining the reaction solution 1, to give a reaction solution 2.\nNext, the reaction solution 1 and the reaction solution 2 were mixed, and the temporal change of absorbance at 475 nm of the obtained mixture was immediately measured.\nThe difference of the absorbencies between the at about 1 minute after the measurement start and at about 5 minutes after was obtained. Assuming that the absorbance change of the control is 100%, an inhibiting rate of the tautomerase reaction in presence of=each test substance was calculated."}, "[1]": {"test_system": "chronic relapsing EAE model of mouse", "assay_type": "in vivo", "method": "Compound A was selected as a test substance, and salazosulfapyridine (hereinafter referred to as SASP) was selected as a comparative control agent. Compound A was administered at a dose of 30 mg/kg (Compound A group). SASP was administered at a dose of 300 mg/kg (SASP group). In control group and normal group (no induction treatment group), 0.5% methyl cellulose aqueous solution used as vehicle of the administration liquid was administered.\nThe chronic relapsing EAE was induced in SJL/J female mice by immunization with partial PLP peptide. Briefly, an emulsion was prepared by mixing equivalent volumes of phosphate buffer saline containing 1 mg/mL of the peptide corresponding to residues 139-151 of the PLP and Freund's […] adjuvant containing 4 mg/mL of killed M. Tuberculosis H37Ra. The emulsion was intradermically injected (50 μg of PLP per mouse) into four positions on the back for immunization, and additionally, on the day of the immunization and two days after, pertussis toxin was intraperitoneally injected in each amount of 150 ng per mouse, twice in total. The vehicle, the test substance or the reference article was orally administered continuously for 44 days once daily from the day of the immunization.\nIn the present experiment, paralysis was developed to reach a peak on the 14th to 16th day after the immunization, and the symptom remitted once, but relapsed to reach a peak on the 38th day.\nThe symptom was evaluated in accordance with a report of Weaver et al. (FASEB Journal, 2005, vol. 19, p. 1668). Briefly, paralysis of all of the four limbs and the tail was evaluated by scoring in 4 ranks of scores of 0 to 3 and in 3 ranks of scores of 0 to 2, respectively, and the sum of the scores was determined as EAE score (the maximum score 14).\nIncidence rates (the number of mice having developed the disease/the number of used mice) and the average of EAE score of each group were measured at the period of initial onset (on the 15th day after the immunization) and at the period of relapse (on the 38th day after the immunization)."}}, "data": [{"smiles": "CS(=O)(=O)Nc1cc2occ(NC=O)c(=O)c2cc1Oc1ccccc1", "note": "[Compound A, N-[7-[(methylsulfonyl)amino]-4-oxo-6-phenoxy-4H-1-benzopyran-3-yl]formamide]", "values": [{"measurement": "inhibition at 30 µM", "setting": "MIF", "result": "50 to 75", "unit": "%"}, {"measurement": "EAE score, period of initial onset", "setting": "[1]; 15th day after immunization, average, maximum score 14, oral once daily (Compound A 30 mg/kg, SASP 300 mg/kg)", "result": 1.4}, {"measurement": "Incidence rate, period of initial onset", "setting": "[1]; 15th day after immunization, mice having developed the disease/mice used, oral once daily from immunization (Compound A 30 mg/kg, SASP 300 mg/kg)", "result": "1/8"}, {"measurement": "EAE score, period of relapse", "setting": "[1]; 38th day after immunization, average, maximum score 14, oral once daily (Compound A 30 mg/kg, SASP 300 mg/kg)", "result": 0.3}, {"measurement": "Incidence rate, period of relapse", "setting": "[1]; 38th day after immunization, mice having developed the disease/mice used, oral once daily (Compound A 30 mg/kg, SASP 300 mg/kg)", "result": "2/8"}, {"measurement": "Effect on incidence rate / EAE score, paralysis of chronic relapsing EAE", "setting": "[1]; oral once daily for 44 days from immunization (Compound A 30 mg/kg, SASP 300 mg/kg)", "result": "suppressed the occurrence of paralysis"}]}]}
